Measurements taken from ChEMBL document CHEMBL1149891, “Rationally designed PKA inhibitors for positron emission tomography: Synthesis and cerebral biodistribution of N-(2-(4-bromocinnamylamino)ethyl)-N-[11C]methyl-isoquinoline-5-sulfonamide” (Bioorg Med Chem, 2008).

How the values were obtained:
[1] = Inhibition of PKA
[2] = Biodistribution in tail vein injected Sprague-Dawley rat brain after 5 to 60 mins; format: ADME, organism-based; details: iv, read-out: Drug uptake
[3] = Partition coefficient, log P in phosphate buffer at pH 7.4; format: physicochemical

| Compound | IC50 [1] [µM] | tissue uptake [2] [%ID/g] | logD [3] |
| --- | --- | --- | --- |
| O=S(=O)(NCCNC/C=C/c1ccc(Br)cc1)c1cccc2cnccc12 | 0.94 |  |  |
| CN(CCNC/C=C/c1ccc(Br)cc1)S(=O)(=O)c1cccc2cnccc12 | 1.28 | < 0.2 | 2.93 |
